SMILES strings stand for the structures. pKd: −log10 of the molar value.

The record followed here is patent US20250032623A1, “HETEROBIFUNCTIONAL COMPOUNDS AND THEIR USE IN TREATING DISEASE” (HALDA THERAPEUTICS OPCO, INC., priority 2021, published 2025).

One test addresses T1, EGFR (Homo sapiens, UniProt P00533).
T1 construct: purchased
Put plainly: KdELECT binding assay, EGFR. As for the experimental part:
Exemplary compounds were tested for ability to bind to EGFR.
(§1) Compounds were tested using a KdELECT assay. Kinase-tagged T7 phage strains were prepared in an E. coli host derived from the BL21 strain. E. coli were grown to log-phase and infected with T7 phage and incubated with shaking at 32° C. until lysis. The lysates were centrifuged and filtered to remove cell debris. The remaining kinases were produced in HEK-293 cells and subsequently tagged with DNA for qPCR detection. Streptavidin-coated magnetic beads were treated with biotinylated small molecule ligands for 30 minutes at room temperature to generate affinity resins for kinase assays. The liganded beads were blocked with excess biotin and washed with blocking buffer (SeaBlock (Pierce), 1% BSA, 0.05% Tween 20, 1 mM DTT) to remove unbound ligand and to reduce non-specific binding. Binding reactions were assembled by combining kinases, liganded affinity beads, and test compounds in 1× binding buffer (20% SeaBlock, 0.17×PBS, 0.05% Tween 20, 6 mM DTT). Test compounds were prepared as 111× stocks in 100% DMSO. Kd values were determined using an 11-point 3-fold compound dilution series with three DMSO control points. All compounds for Kd measurements are distributed by acoustic transfer (non-contact dispensing) in 100% DMSO. The compounds were then diluted directly into the assays such that the final concentration of DMSO was 0.9%. All reactions performed in polypropylene 384-well plate. Each was a final volume of 0.02 mL. The assay plates were incubated at room temperature with shaking for 1 hour and the affinity beads were washed with wash buffer (1× PBS, 0.05% Tween 20). The beads were then re-suspended in elution buffer (1× PBS, 0.05% Tween 20, 0.5 μM nonbiotinylated affinity ligand) and incubated at room temperature with shaking for 30 minutes. The kinase concentration in the eluates was measured by qPCR.

Test [1] concerns the target T2, EGFR T790M, L858R (amino acids 669-1011 Accession Number NP_005219.2) (Homo sapiens, UniProt P00533, L858R/T790M).
T2 construct: purchased Eurofins Discovery; host or cells: mammalian cells (HEK-293)
Nature of the test: KdELECT binding assay (Eurofins Discovery), EGFR T790M, L858R. The following applies: read-out: EGFR DM Kd. As for the experimental part:
(§2) Exemplary compounds were tested for ability to bind to EGFR WT (amino acids 669-1011, Accession Number NP_005219.2) or EGFR T790M, L858R (amino acids 669-1011 Accession Number NP_005219.2) expressed from bacteria or mammalian cells, respectively. Compounds were tested using the KdELECT assay at Eurofins Discovery.
as §1, with “Kinase-tagged” for “Compounds were tested using a KdELECT assay. Kinase-tagged”

Test [2] concerns the target T3, EGFR WT (amino acids 669-1011, Accession Number NP_005219.2) (Homo sapiens, UniProt P00533).
T3 construct: purchased Eurofins Discovery; host or cells: bacteria (E. coli, BL21-derived, T7 phage)
Put plainly: KdELECT binding assay (Eurofins Discovery), EGFR WT. As for the experimental part: as §2
as §1, with “Kinase-tagged” for “Compounds were tested using a KdELECT assay. Kinase-tagged”

For another test, the system named is HEK293 cells. Put plainly: Cellular growth inhibition assay (CellTiter-Glo), HEK293 cells. In kind it is cell-based. The following applies: Homo sapiens, 72 h, three days compound treatment, CellTiter-Glo 2.0, read-out: CTG HEK293 GI50. As for the experimental part:
Exemplary compounds were tested for ability to inhibit the proliferation of HEK293 cells or HeLa cells.
HEK293 and HeLa cells were cultured in DMEM medium supplemented with 10% fetal bovine serum and 1% Penn/Strep. Cells were seeded in white 384-well plates at 500 cells/well in […] complete medium. Following seeding, plates were spun at 300×g for three minutes and cultured at 37° C. with 5% CO2 in a humidified tissue culture incubator.
After 24 hours, compounds were titrated in 100% DMSO and diluted in complete cell culture medium. […] of compound/media mixture was added to cells to bring total volume in well to […]. DMSO alone was used as a negative control. P lates were then spun at 300×g for three minutes and stored at 37° C. with 5% CO2 for three days.
On Day 0 and Day 3 of compound treatment, cell viability was quantified with CellTiter-Glo 2.0 reagent (Promega). After equilibrating microplates at room temperature for 30 minutes, 25 μL CellTiter-Glo 2.0 reagent was dispensed into each well to bring total volume to […]. Plates were mixed on shaker for 2 minutes at 500 rpm, followed by a 10-minute incubation at room temperature. Following a quick spin, luminescence readings were measured with an EnVision Plate Reader. Data was normalized to DMSO treated Day 0 and Day 3 readings. A four-parameter non-linear regression curve fit was applied to dose-response data in GraphPad Prism data analysis software to determine the half maximal growth inhibitory concentration (GI50) for each compound.
(In general: ATP-based viability assays read luminescence as a measure of living cells.)

T3 sequence (P00533 669-1011): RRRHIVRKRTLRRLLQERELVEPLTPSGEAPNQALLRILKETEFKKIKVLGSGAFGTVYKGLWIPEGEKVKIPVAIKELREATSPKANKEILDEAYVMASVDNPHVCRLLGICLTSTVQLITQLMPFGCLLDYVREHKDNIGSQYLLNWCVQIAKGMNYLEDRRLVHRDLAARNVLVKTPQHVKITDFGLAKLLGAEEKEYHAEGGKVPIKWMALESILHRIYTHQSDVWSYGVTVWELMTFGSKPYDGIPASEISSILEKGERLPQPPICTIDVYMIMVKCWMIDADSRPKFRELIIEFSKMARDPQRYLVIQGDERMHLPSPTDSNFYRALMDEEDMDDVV
T2 sequence (P00533 669-1011 T790M/L858R): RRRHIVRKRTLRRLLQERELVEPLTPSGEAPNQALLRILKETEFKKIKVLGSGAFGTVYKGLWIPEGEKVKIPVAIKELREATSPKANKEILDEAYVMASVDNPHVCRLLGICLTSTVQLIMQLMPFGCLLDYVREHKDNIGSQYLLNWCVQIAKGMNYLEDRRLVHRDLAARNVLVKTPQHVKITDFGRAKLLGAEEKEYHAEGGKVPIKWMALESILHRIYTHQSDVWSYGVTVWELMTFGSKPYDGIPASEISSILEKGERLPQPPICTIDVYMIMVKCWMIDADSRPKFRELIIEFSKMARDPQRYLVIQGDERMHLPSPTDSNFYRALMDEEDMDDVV
T1 sequence (P00533 25-1210): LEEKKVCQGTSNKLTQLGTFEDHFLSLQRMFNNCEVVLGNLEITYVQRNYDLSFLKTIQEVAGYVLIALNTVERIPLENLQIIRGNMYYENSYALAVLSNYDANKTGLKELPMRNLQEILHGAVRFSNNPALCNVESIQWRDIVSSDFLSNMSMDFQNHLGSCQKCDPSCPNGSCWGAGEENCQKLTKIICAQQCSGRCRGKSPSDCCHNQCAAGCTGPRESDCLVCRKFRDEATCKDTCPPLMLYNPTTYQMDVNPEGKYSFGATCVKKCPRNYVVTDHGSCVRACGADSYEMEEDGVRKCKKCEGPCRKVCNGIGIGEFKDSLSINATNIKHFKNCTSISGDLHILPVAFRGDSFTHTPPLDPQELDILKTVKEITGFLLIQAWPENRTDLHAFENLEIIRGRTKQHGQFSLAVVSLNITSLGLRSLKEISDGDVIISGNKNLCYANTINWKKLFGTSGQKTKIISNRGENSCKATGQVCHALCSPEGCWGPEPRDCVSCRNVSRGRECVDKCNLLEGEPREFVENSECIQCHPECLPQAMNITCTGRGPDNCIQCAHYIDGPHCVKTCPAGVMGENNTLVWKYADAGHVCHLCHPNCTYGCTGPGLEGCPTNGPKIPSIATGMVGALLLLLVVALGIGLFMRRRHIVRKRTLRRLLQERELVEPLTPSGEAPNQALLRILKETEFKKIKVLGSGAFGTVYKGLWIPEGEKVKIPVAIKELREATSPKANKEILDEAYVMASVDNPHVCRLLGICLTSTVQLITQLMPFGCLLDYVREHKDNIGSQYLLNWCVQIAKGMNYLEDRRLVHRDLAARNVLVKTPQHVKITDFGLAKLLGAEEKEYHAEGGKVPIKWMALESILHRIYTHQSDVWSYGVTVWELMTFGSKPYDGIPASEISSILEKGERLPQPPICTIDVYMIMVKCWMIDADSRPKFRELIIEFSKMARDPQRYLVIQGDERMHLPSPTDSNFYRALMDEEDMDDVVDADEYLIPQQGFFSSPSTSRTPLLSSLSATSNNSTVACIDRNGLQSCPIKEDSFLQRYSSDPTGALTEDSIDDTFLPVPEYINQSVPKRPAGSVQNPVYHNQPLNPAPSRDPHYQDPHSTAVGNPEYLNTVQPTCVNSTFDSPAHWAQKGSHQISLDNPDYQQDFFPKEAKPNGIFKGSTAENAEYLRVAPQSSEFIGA

By pKd is commonly meant the Kd on a negative log10 scale, so that one unit is a factor of ten. On to `C=CC(=O)Nc1cc(Nc2nccc(-c3cn(C)c4ccccc34)n2)c(OC)cc1N(C)CCN(C)CCCCCCCCNS(=O)(=O)c1ccc(Nc2ncc(Br)c(Nc3cccc(F)c3C(N)=O)n2)cc1` [Compound I-28, 2-[[5-bromo-2-[4-[8-[2-[5-methoxy-N-methyl-4-[[4-(1-methylindol-3-yl)pyrimidin-2-yl]amino]-2-(prop-2-enoylamino)anilino]ethyl-methyl-amino]octylsulfamoyl]anilino]pyrimidin-4-yl]amino]-6-fluoro-benzamide], for which the pKd at EGFR is above 7.30; in test [1], above 7.30; in test [2], 6.30 to 7.30.
For `C=CC(=O)Nc1cc(Nc2nccc(-c3cn(C)c4ccccc34)n2)c(OC)cc1N(C)CCN(C)CCOCCOCCOCCOCCNS(=O)(=O)c1ccc(Nc2ncc(Br)c(Nc3cccc(F)c3C(N)=O)n2)cc1` [Compound I-32, 2-[[5-bromo-2-[4-[2-[2-[2-[2-[2-[2-[5-methoxy-N-methyl-4-[[4-(1-methylindol-3-yl)pyrimidin-2-yl]amino]-2-(prop-2-enoylamino)anilino]ethyl-methyl-amino]ethoxy]-ethoxy]ethoxy]ethoxy]ethylsulfamoyl]anilino]pyrimidin-4-yl]amino]-6-fluoro-benzamide], the pKd was above 7.30 in test [1] and 6.30 to 7.30 in test [2].
For the molecule `C=CC(=O)Nc1cc(Nc2nccc(-c3cn(C)c4ccccc34)n2)c(OC)cc1N(C)CCN(C)CCOCCOCCOCCOCCOCCOCCNS(=O)(=O)c1ccc(Nc2ncc(Br)c(Nc3cccc(F)c3C(N)=O)n2)cc1` [Compound I-34, 2-[[5-bromo-2-[4-[2-[2-[2-[2-[2-[2-[2-[2-[5-methoxy-N-methyl-4-[[4-(1-methylindol-3-yl)pyrimidin-2-yl]amino]-2-(prop-2-enoylamino)anilino]ethyl-methyl-amino]ethoxy]ethoxy]ethoxy]-ethoxy]ethoxy]ethoxy]ethylsulfamoyl]anilino]pyrimidin-4-yl]amino]-6-fluoro-benzamide], the pKd was above 7.30 at EGFR, above 7.30 in test [1] and 6.30 to 7.30 in test [2].
As to `C=CC(=O)Nc1cc(Nc2nccc(-c3cn(C)c4ccccc34)n2)c(OC)cc1N(C)CCN(C)CCOCCOCCOCCOCCOCCOCCON(C)C(=O)N1N=C(c2cc(F)ccc2F)SC1(CCCN)c1ccccc1` (centres unmarked) [Compound I-68], the results for the pKd in test [1] and in test [2] were above 7.30 and 5.60 to 6.30, respectively.
The GI50 is the concentration that inhibits growth by half. As to `C=CC(=O)Nc1cc(Nc2nccc(-c3cn(C)c4ccccc34)n2)c(OC)cc1N(C)CCN(C)CCNC(=O)c1ccc(Nc2ncc3c(n2)N(C2CCCC2)[C@H](CC)C(=O)N3C)c(OC)c1` [Compound I-115, 4-[[(7R)-8-cyclopentyl-7-ethyl-5-methyl-6-oxo-7H-pteridin-2-yl]amino]-3-methoxy-N-[2-[2-[5-methoxy-N-methyl-4-[1[4-(1-methylindol-3-yl)pyrimidin-2-yl]amino]-2-(prop-2-enoylamino)anilino]ethyl-methyl-amino]ethyl]benzamide], in the test on HEK293 cells, the GI50 is 500 to 1500 nM. Besides, the pKd at EGFR was below 5.60; in test [1], 6.30 to 7.30; in test [2] it was below 5.60.
With `CC[C@@H]1C(=O)N(C)c2cnc(Nc3ccc(C(=O)NCCOCCOCCN(C)C/C=C/C(=O)Nc4cc(Nc5nccc(-c6cn(C)c7ccccc67)n5)c(OC)cc4N(C)CCN(C)C)cc3OC)nc2N1C1CCCC1` [Compound I-117, 4-[[(7R)-8-cyclopentyl-7-ethyl-5-methyl-6-oxo-7H-pteridin-2-yl]amino]-N-[2-[2-[2-1[[(E)-4-1[2-[2-(dimethylamino)ethyl-methyl-amino]-4-methoxy-5-1[[4-(1-methylindol-3-yl)pyrimidin-2-yl]amino]anilino]-4-oxo-but-2-enyl]-methyl-amino]ethoxy]ethoxy]ethyl]-3-methoxy-benzamide], the GI50 in the test with HEK293 cells is 500 to 1500 nM. For the same molecule, the pKd was below 5.60 on EGFR, 6.30 to 7.30 in test [1] and below 5.60 in test [2].
For the molecule `CC[C@@H]1C(=O)N(C)c2cnc(Nc3ccc(C(=O)NCCOCCOCCOCCOCCOCCOCCN(C)C/C=C/C(=O)Nc4cc(Nc5nccc(-c6cn(C)c7ccccc67)n5)c(OC)cc4N(C)CCN(C)C)cc3OC)nc2N1C1CCCC1` [Compound I-118, 4-[[(7R)-8-cyclopentyl-7-ethyl-5-methyl-6-oxo-7H-pteridin-2-yl]amino]-N-[2-[2-[2-[2-[2-[2-[2-[[(E)-4-[2-[2-(dimethylamino)ethyl-methyl-amino]-4-methoxy-5-[[4-(1-methylindol-3-yl)pyrimidin-2-yl]amino]anilino]-4-oxo-but-2-enyl]-methyl-amino]ethoxy]ethoxy]ethoxy]ethoxy]ethoxy]ethoxy]ethyl]-3-methoxy-benzamide], the concentration for 50% growth inhibition (GI50) in the test with HEK293 cells is 500 to 1500 nM. Further, the results for the pKd (on EGFR; in test [1]; in test [2]) were below 5.60, 6.30 to 7.30 and below 5.60, respectively.
As for `CCC1C(=O)N(C)c2cnc(Nc3ccc(C(=O)NCCOCCOCCN(C)CC=CC(=O)NC4CN(c5nc(Nc6cn(C)nc6OC)c6ncn(C)c6n5)CC4F)cc3OC)nc2N1C1CCCC1` [Compound I-120, 4-[[(7R)-8-cyclopentyl-7-ethyl-5-methyl-6-oxo-7H-pteridin-2-yl]amino]-N-[2-[2-[2-[[(E)-4-1[[(3R,4R)-4-fluoro-1-[6-1[(3-methoxy-1-methyl-pyrazol-4-yl)amino]-9-methyl-purin-2-yl]pyrrolidin-3-yl]amino]-4-oxo-but-2-enyl]-methylamino]ethoxy]ethoxy]ethyl]-3-methoxy-benzamide], in the test with HEK293 cells, the GI50 lay in the range of 500 to 1500 nM. For the same molecule, the pKd is below 5.60 on EGFR, 6.30 to 7.30 in test [1] and below 5.60 in test [2].
